“Also recorded” adds a separate entry of the source.

The test system of one experiment is AML cell line Molm-14. Kind of experiment: MTT assay, metabolic activity of Molm-14 cells. In kind it is cell-based. The following applies: 72 h; for effect on metabolic activity of Molm-14 cells (in words): concentrations up to 20 μM. The procedure:
(§1) All studies with the HEL, Molm-14 and K562 cell lines mentioned (sourced from DSMZ: ACC-11, ACC-10 and ACC-777) were conducted under germ-free conditions under a sterile hood. Incubation was effected at 37° C. in an incubator at a CO2 saturation of 5%. For the passage of the suspension cells, the cells were transferred in a Falcon prefilled with PBS (phosphate buffered saline) and centrifuged at 1200 rpm for 5 min. All three cell lines were cultured in RPMI-1640 medium (Gibco, Thermo Fischer Scientific, Darmstadt, Germany) with 10% FCS and 1% penicillin streptomycin.
(§2) The viability and metabolic activity of the cells were measured by the MTT assay. Yellow, water-soluble MTT (3-([…])-2,5-diphenyltetrazolium bromide) is a tetrazolium salt which is reduced to dark blue formazan in living cells. Insoluble formazan is released by addition of isopropanol-HCl, and its intensity can be determined by photometry at a wavelength of 550 nm. Thus, the proportion of living cells is measured by comparison with a particular control sample. The cells were counted and washed with PBS, and 30 000 cells per well were sown in triplicates in a 96-well plate. For the inhibitor treatment, the stated final concentrations were used. For this purpose, 10 µl of the appropriate inhibitor dilution was introduced into the 96-well plates, and then 90 μl of cell suspension was pipetted in. The plates were incubated in an incubator for 72 h (37° C., 5% CO2). After the incubation, 10 μl of MTT solution (5 mg/ml) was applied to the wells with a multichannel pipette and thoroughly resuspended. This was followed by incubation for 4 h in the dark at room temperature. Subsequently, the cells were resuspended in 100 μl of isopropanol-HCl and lysed, and absorption at a wavelength of 550 nm was measured by photometry with a plate reader (Kayto, RT-2100C).
(§3) The erythroleukaemia cell line HEL (JAK2V617F-positive), the AML cell line Molm-14 and the chronic myeloid leukaemia (CML) cell line K562 (BCR-ABL-positive) were used for cell experiments.
(§4) Compounds MF1-R, MF1-S, JHS1-R and JHS1-S were dissolved in DMSO, and each was used in concentrations of 0.1 μM, 1 μM, 10 μM and 20 μM. Correspondingly, DMSO was included in each case as a control treatment, and the metabolic activity thereof was set to 100%. The HEL, Molm-14 and K562 cell lines were treated with the respective compounds in the different concentrations and, after 72 h in culture, the metabolic activity, which gives information about the growth of the cells, was determined by means of MTT [3-(4,5-dimethylthiazol-2-yl)-2,5-diphenyltetrazolium bromide] assay.
On the technique in general: Tetrazolium assays rely on reduction of a dye to a coloured formazan, in cell work by metabolically active cells.

In experiment [1] the test system is erythroleukaemia cell line HEL (JAK2V617F-positive). Kind of experiment: MTT assay, metabolic activity of HEL cells. It is filed as cell-based. The following applies: 72 h; for effect on metabolic activity of HEL cells (in words): concentrations up to 20 μM. As to the method: as §1, §2, §3, §4
Experiment [2] has as its system haematopoietic cell lines, erythroleukaemia and AML cell lines. The experiment in a line: Inhibitory activity in haematopoietic cell lines (summary statements). Conditions: for activity relative to PFI-1 in haematopoietic cell lines: racemic mixtures of MF1, MF2, achiral MF3. It is filed as cell-based. The procedure: as §1, §2
The test system of experiment [3] is PBMC or CD34+ cells from healthy donors. The experiment in a line: CFU assay, healthy controls. In kind it is cell-based, human. The procedure:
With the aid of the CFU assay, it is possible to determine the colony-forming capacity of individual cells in a semisolid methylcellulose medium (MethoCult H4434, StemCell Technologies, Cologne, Germany). The number of colonies was determined after 7-11 days.
CD34+ cells (G-CSF mobilized from stem cell donors) from healthy donors: 2×10^4 cells/ml; PBMCs from the healthy subjects: 4×10^5 cells/ml.
For this purpose, mononuclear cells (PBMC: mononuclear cells from peripheral blood) or CD34-positive stem cells (CD34+ cells) were isolated from the blood of four healthy controls and three AML or MPN patients and introduced into semisolid medium, to each of which 1 μM or 5 μM of MFS-2 or PFI-1 have been added. Individual cells in the CFU assay form cell colonies in culture after 12 days, unless the formation thereof is prevented by inhibitors.

Experiment [4] concerns proteins from the BET family. Kind of experiment: Thermal shift assay (BromoMELT assay), BET family. In kind it is binding. Conditions: 10 μM, duplicates, versus DMSO control; apart from BRDT-2. The procedure:
(§5) The experiment was conducted in duplicates at a concentration of 10 μM.

In another experiment the test system is BRD2. The experiment in a line: Thermal shift assay (BromoMELT assay), BRD2. In kind it is binding. Conditions: 10 μM, duplicates, versus DMSO control. As to the method: as §5

On to `CN1Cc2cc(N=S(C)(=Nc3ccccc3)c3ccccc3)ccc2NC1=O` (racemic) [JHS1, rac-N-(3-methyl-2-oxo-1,2,3,4-tetrahydroquinazolin-6-yl)-N-phenyl-S-methyl-S-phenylsulfonediimide], for which the “effect on metabolic activity of Molm-14 cells (in words)” value (from here on “effect … of Molm-14 cells (in words)”) in the experiment with AML cell line Molm-14 is “reduced the metabolic activity of HEL and Molm-14 cells at concentrations of 10 and 20 μM; also recorded: achieved inhibition of the metabolic activity of HEL and Molm-14 cells at concentrations of 10 and 20 μM”. Moreover, the “effect on metabolic activity of HEL cells (in words)” value (“effect … of HEL cells (in words)” below) in experiment [1] was “reduced the metabolic activity of HEL and Molm-14 cells at concentrations of 10 and 20 μM; also recorded: achieved inhibition of the metabolic activity of HEL and Molm-14 cells at concentrations of 10 and 20 μM”.
Take `CN1Cc2cc(N=S(C)(=N)c3ccccc3)ccc2NC1=O` (racemic) [JHS2, rac-N-(3-methyl-2-oxo-1,2,3,4-tetrahydroquinazolin-6-yl)-N′—H—S-methyl-S-phenylsulfonediimide]: the “inhibitory activity in haematopoietic / leukaemia cell lines (in words)” value in experiment [2] is reported as “minor inhibitory activity”. In the experiment with AML cell line Molm-14, the “effect … of Molm-14 cells (in words)” value was “inactive”. The “effect … of HEL cells (in words)” value in experiment [1] was “inactive”.
As for `CN=S(C)(=Nc1ccc2c(c1)CN(C)C(=O)N2)c1ccccc1` (racemic) [JHS3, rac-N-(3-methyl-2-oxo-1,2,3,4-tetrahydroquinazolin-6-yl)-N-methyl-S-methyl-S-phenylsulfonediimide], in experiment [2], the “inhibitory activity in haematopoietic / leukaemia cell lines (in words)” value was “minor inhibitory activity”. In addition, the “effect … of Molm-14 cells (in words)” value in the experiment with AML cell line Molm-14 was “inactive”. In addition, the “effect … of HEL cells (in words)” value in experiment [1] was “inactive”.
Regarding `COc1ccccc1S(C)(=O)=Nc1ccc2c(c1)CN(C)C(=O)N2` (racemic) [MF1, rac-N-(3-methyl-2-oxo-1,2,3,4-tetrahydroquinazolin-6-yl)-S-(2-methoxyphenyl)-S-methylsulfoximine], in experiment [2], the “inhibitory activity in haematopoietic / leukaemia cell lines (in words)” value is recorded as “marked inhibitory activity; also recorded: showed inhibitory activity” and the “activity relative to PFI-1 in haematopoietic cell lines” value is “at a comparable level to PFI-1”.
As to `CN1Cc2cc(N=S(C)(=O)c3ccccc3)ccc2NC1=O` (racemic) [MF2, rac-N-(3-methyl-2-oxo-1,2,3,4-tetrahydroquinazolin-6-yl)-S-methyl-S-phenylsulfoximine], in experiment [2], the “inhibitory activity in haematopoietic / leukaemia cell lines (in words)” value is listed as “marked inhibitory activity” and the “activity relative to PFI-1 in haematopoietic cell lines” value was “at a comparable level to PFI-1”. Besides, the “effect … of Molm-14 cells (in words)” value with AML cell line Molm-14 was “reduced the metabolic activity of HEL and Molm-14 cells at concentrations of 10 and 20 μM”. Besides, the “effect … of HEL cells (in words)” value in experiment [1] was “reduced the metabolic activity of HEL and Molm-14 cells at concentrations of 10 and 20 μM”.
With `CN1Cc2cc(N=[S@@](C)(=Nc3ccccc3)c3ccccc3)ccc2NC1=O` [JHS1-R, (R)—N-(3-methyl-2-oxo-1,2,3,4-tetrahydroquinazolin-6-yl)-N′-phenyl-S-methyl-S-phenylsulfonediimide], in experiment [2], the “inhibitory activity in haematopoietic / leukaemia cell lines (in words)” value is reported as “almost the same level of inhibitory action”.
As to `CN1Cc2cc(N=[S@](C)(=Nc3ccccc3)c3ccccc3)ccc2NC1=O` [JHS1-S, (S)—N-(3-methyl-2-oxo-1,2,3,4-tetrahydroquinazolin-6-yl)-N-phenyl-S-methyl-S-phenylsulfonediimide], the “effect … of Molm-14 cells (in words)” value in the experiment with AML cell line Molm-14 is “comparable effect on the metabolic activity”. The “effect … of HEL cells (in words)” value in experiment [1] was “comparable effect on the metabolic activity”.
In the case of `COc1ccccc1[S@@](C)(=O)=Nc1ccc2c(c1)CN(C)C(=O)N2` [MF1-R, (R)—N-(3-methyl-2-oxo-1,2,3,4-tetrahydroquinazolin-6-yl)-S-(2-methoxyphenyl)-S-methylsulfoximine], the “inhibitory activity in haematopoietic / leukaemia cell lines (in words)” value in experiment [2] is recorded as “minor inhibitory effect”. Moreover, the “effect … of Molm-14 cells (in words)” value in the experiment on AML cell line Molm-14 is “virtually inactive”. Besides, in experiment [1], the “effect … of HEL cells (in words)” value is “virtually inactive”.
As for `COc1ccccc1[S@](C)(=O)=Nc1ccc2c(c1)CN(C)C(=O)N2` [MF1-S, (S)—N-(3-methyl-2-oxo-1,2,3,4-tetrahydroquinazolin-6-yl)-S-(2-methoxyphenyl)-S-methylsulfoximine], in the experiment on AML cell line Molm-14, the “effect … of Molm-14 cells (in words)” value is “comparable effect on the metabolic activity of HEL and Molm-14 cells to PFI-1”. Further, the “effect … of HEL cells (in words)” value in experiment [1] is “comparable effect on the metabolic activity of HEL and Molm-14 cells to PFI-1”.
As for `CN1Cc2cc(N=[S@](C)(=O)c3ccccc3)ccc2NC1=O` [MF2-R, (R)—N-(3-methyl-2-oxo-1,2,3,4-tetrahydroquinazolin-6-yl)-S-Methyl-S-Phenylsulfoximine], the “inhibitory activity in haematopoietic / leukaemia cell lines (in words)” value in experiment [2] is reported as “showed inhibition of the cell proliferation of leukaemia cell lines”. Also, the “effect … of Molm-14 cells (in words)” value in the experiment on AML cell line Molm-14 is “lost inhibitory activity compared to MF2”. The “effect … of HEL cells (in words)” value in experiment [1] was “lost inhibitory activity compared to MF2”.
In the case of `CN1Cc2cc(N=S(=O)(c3ccccc3)c3ccccc3)ccc2NC1=O` [MF3, N-(3-methyl-2-oxo-1,2,3,4-tetrahydroquinazolin-6-yl)-S,S-diphenylsulfoximine], in experiment [2], the “inhibitory activity in haematopoietic / leukaemia cell lines (in words)” value was “marked inhibitory activity” and the “activity relative to PFI-1 in haematopoietic cell lines” value was “at a comparable level to PFI-1”.
As to `COc1ccccc1S(=O)(=O)Nc1ccc2c(c1)CN(C)C(=O)N2` [PFI-1, reference compound], the “colony count, healthy CD34+ controls 3 and 4” value in experiment [3] (1 μM) is “reduced the colony count of the controls to a lesser degree”. Besides, in experiment [3] (5 μM), the “colony count, healthy controls 1 (PBMC) and 2 (CD34+ cells)” value is reported as “likewise reduced the amount of colonies”. The “metabolic activity of Molm-14 cells” value in the experiment with AML cell line Molm-14 (1 μM, DMSO control set to 100%) is 80.43%±1.324. Moreover, the “metabolic activity of HEL cells” value in experiment [1] (1 μM, DMSO control set to 100%) is listed as 72.95%±12.7. Besides, the “binding of BET family proteins (ΔTm, in words)” value in experiment [4] is on record as “specifically bind proteins of the BET family”. Moreover, the “binding of BRD2 (ΔTm, in words)” value with BRD2 is recorded as “stronger binding of BRD2”.

(Values after patent US12503446B2, “Bromodomain inhibitors” (FORSCHUNGSZENTRUM JÜLICH GMBH, priority 2019, dated 2025).)
